Data as given in paper PMC8072719, “Synthesis and Antiproliferative Activity of Triazoles Based on 2-Azabicycloalkanes” (Materials, 2021).
Where two headings read alike, the source gives them in different places.

How the values were obtained:
[1] = Solvability in DMSO (table footnote); type: physicochemical; set-up: key to solvability in dimethyl sulfoxide (DMSO): **: poor or no solvability in dimethyl sulfoxide (DMSO); key to solvability in DMSO: [b]: poor or no solvability in DMSO; settings: for solvability in DMSO: supplement
NCI-H1581 = assay: Growth inhibition assay (SRB assay), lung tumor cell line NCI-H1581; type: cell-based, human; settings: for IC50: 72 h, SRB, mean ± SD
Procedure: (§1) Three human cancer cell lines were used to evaluate the antiproliferative activity of the obtained compounds: melanoma cell line Hs294T, pancreatic tumor cell line MIA PaCa-2, and lung tumor cell line NCI-H1581. The normal mouse fibroblasts cell line (BALB/3T3 clone A31) was selected as reference. All these lines were purchased from the ATCC (American Type Culture Collection, Rockville, MD, USA). NCI-H1581 cells were grown in RPMI 1640 with GlutaMax medium (Gibco, Thermo Fisher Scientific, Leicestershire, UK) with 5% fetal bovine serum (FBS; HyClone, GE Healthcare, Logan, UT, USA). Hs294T and BALB/3T3 cells were grown in Dulbecco’s Modified Eagle Medium (DMEM; Gibco, Thermo Fisher Scientific, Leicestershire, UK) supplemented with 2 mM L-glutamine and 10% FBS (HyClone, GE Healthcare, Logan, UT, USA). MIA PaCa-2 cells were grown in DMEM (Gibco, Thermo Fisher Scientific, Leicestershire, UK) supplemented with 2 mM L-glutamine, 2.5% Horse Serum (Gibco, Thermo Fisher Scientific, Leicestershire, UK), and 10% FBS (HyClone, GE Healthcare, Logan, UT, USA). All culture media were supplemented with antibiotics: 100 U/mL penicillin (Polfa Tarchomin SA, Warsaw, Poland) and 100 µg/mL streptomycin (Sigma-Aldrich Chemie GmbH, Steinheim, Germany); cells were grown at 37 °C in a humid atmosphere with 5% CO2.
(§2) Twenty-four hours prior to the addition of the tested compounds, 2000 cells per well of Balb/3T3, MIA PaCa-2, and Hs294T cell lines and 2500 cells of NCI-H1581 cell line were seeded in 384-well plates (Greiner Bio-One, Kremsmünster, Austria) in an appropriate medium. The studied compounds were added to the cells at 8 different concentrations in a series of dilutions from 100 to 0.00001 µg/mL for 72 h. Cisplatin was applied as a reference compound (Teva Pharmaceuticals, Warsaw, Poland). DMSO (Sigma-Aldrich Chemie GmbH, Steinheim, Germany) was used as solvent control. The DMSO concentrations corresponded to the solvent concentrations in the tested compound solutions. Then, 30 µL per well of ice-cold 50% TCA (trichloroacetic acid, Avantor, Gliwice, Poland) was added to the cells. After one hour of incubation at room temperature (RT) cells were washed five times with water and stained with 0.4% SRB (sulforhodamine B, Sigma-Aldrich Chemie GmbH, Steinheim, Germany). Twenty-five microliters per well of 0.4% solution of SRB in 1% acetic acid (Avantor, Gliwice, Poland) was applied. After 0.5 h of incubation at RT, the unbound dye was washed out with 1% acetic acid. The bound dye in each well was dissolved in 70 µl of 10 mM TRIS (Tris base, Sigma-Aldrich, Chemie GmbH, Steinheim, Germany). A microplate reader (BioTek Synergy H4, Swindon, UK) with Gen5 software was used to read the absorbance at 540 nm. The results are presented as mean IC50 values (concentration of the compound that inhibits cell proliferation by 50%) ± standard deviation. Half-maximal inhibitory concentration (IC50) values were calculated using the Prolab-3 system based on Cheburator 0.4 [22]. Each experiment was performed in triplicate, and three independent repetitions were made for each experiment. Raw data and IC50 values were placed in the supplementary materials.

BALB/3T3 clone A31 = assay: Growth inhibition assay (SRB assay), normal fibroblasts BALB/3T3 clone A31; type: cell-based, mouse; settings: mean ± SD
Procedure: as §1, §2

Hs294T = assay: Growth inhibition assay (SRB assay), melanoma cell line Hs294T; type: cell-based, human; settings: Homo sapiens, Hs 294T, 72 h, mean ± SD
Procedure: as §1, §2

MIA PaCa-2 = assay: Growth inhibition assay (SRB assay), pancreatic tumor cell line MIA PaCa-2; type: cell-based, human; settings: Homo sapiens, mean ± SD
Procedure: as §1, §2

[2] = Homo sapiens, NCI-H1581, 72 h, read-out: IC50 NCI-H1581
[3] = Homo sapiens, NCI-H1581, 72 h, supplement, read-out: IC50 NCI-H1581 (raw data)
[4] = Mus musculus, BALB/3T3 clone A31, 72 h, normal cell line, read-out: IC50 BALB3T3
[5] = Mus musculus, BALB/3T3 clone A31, 72 h, supplement, read-out: IC50 BALB3T3 (raw data)
[6] = supplement, read-out: IC50 Hs294T (raw data)
[7] = MIA PaCa-2, 72 h, read-out: IC50 MIA PaCa-2
[8] = MIA PaCa-2, supplement, 72 h, read-out: IC50 MIA PaCa-2 (raw data)

Row | SMILES | solvability in dimethyl sulfoxide (DMSO) [1] | solvability in DMSO [1] | IC50 (NCI-H1581; [2]) [µM] | IC50 (NCI-H1581; [3]) [µg/mL] | IC50 (BALB/3T3 clone A31; [4]) [µM] | IC50 (BALB/3T3 clone A31; Mus musculus, BALB/3T3 clone A31, 72 h, supplement, read-out: IC50 BALB3T3 (non-rounded data)) [µM] | IC50 (BALB/3T3 clone A31; [5]) | IC50 (Hs294T; read-out: IC50 Hs294T) [µM] | IC50 (Hs294T; [6]) [µg/mL] | IC50 (MIA PaCa-2; [7]) [µM] | IC50 (MIA PaCa-2; MIA PaCa-2, supplement, 72 h, read-out: IC50 MIA PaCa-2 (non-rounded data)) [µM] | IC50 (MIA PaCa-2; [8]) | SI (Selectivity Index) (NCI-H1581; SI = IC50 for normal cell line BALB/3T3 / IC50 for NCI-H1581) | IC50 (BALB/3T3 clone A31; 72 h, normal cell line, read-out: IC50 BALB3T3) [µM] | IC50 (NCI-H1581; read-out: IC50 NCI-H1581) [µM]
1 | C[C@@H](c1ccccc1)N1C[C@@H](n2cc(-c3ccc(-c4cn([C@@H]5CN([C@@H](C)c6ccccc6)[C@H]6CC[C@@H]5C6)nn4)cc3)nn2)[C@@H]2CC[C@H]1C2 [Compound 14, 1,4-Bis-(1-((1S,4S,5R)-2-((S)-1-phenylethyl)-2-azabicyclo[3.2.1]octan-4-yl)-1H-1,2,3-triazol-4-yl) benzene] | 14 ** | [b] | 20.9 ± 15.2 | 13.4 ± 9.71 | > 100 | > 100 | > 100 µM | 77.3 ± 9.5 | 49.4 ± 6.07 | > 100 | > 100 | > 100 µM |  |  | 
2 | C[C@@H](c1ccccc1)N1C[C@H](n2cc(CCCc3cn([C@H]4CN([C@@H](C)c5ccccc5)[C@H]5CC[C@@H]4C5)nn3)nn2)[C@@H]2CC[C@H]1C2 [Compound 11, 1,3-Bis-(1-((1S,4R,5R)-2-((S)-1-phenylethyl)-2-azabicyclo[3.2.1]octan-4-yl)-1H-1,2,3-triazol-4-yl) propane] | 11 ** | [b] | 4.4 ± 0.61 | 2.66 ± 0.37 | 26.7 |  | 16.2 ± 2.88 µg/mL | 9.71 ± 3.08 | 5.87 ± 1.86 | 37.6 ± 5.51 |  | 22.7 ± 3.33 µg/mL | 6 | 26.7 ± 4.76 | 
3 | CC(c1ccccc1)N1C2CCC(C2)C1c1cn(CC2CCCN2C(=O)OC(C)(C)C)nn1 (centres unmarked) [Compound 21] | 21 ** | [b] | 77.6 | 35 ± 3.92 | > 100 |  | 48.8 ± 10.1 µg/mL | 92.6 ± 22 | 41.8 ± 9.92 | 90.28 ± 0.69 |  | 40.77 ± 0.31 µg/mL |  |  | 77.6 ± 8.68
